# Read-outs that look alike come from different tables or passages of the source.
# Experiments:
# [1] = tested on: Hymenolepis nata; conditions: U.S. Pat. No. 3,862,945; cited from earlier work
# [2] = tested on: S. aureus; conditions: taken from Antibiotics in Laboratory Medicine; cited from earlier work
# [3] = tested on: Pseudomonas aeruginosa ATCC 27853; assay: Macrobroth dilution testing for antimicrobial activity (MIC); assay type: cell-based; conditions: ATCC27853, 18 h, macrodilution, read-out: Minimum Inhibitory Concentration
# Method: (§1) A working antimicrobial solution was prepared by diluting the test compound in Mueller Hinton Broth (MHB) to the highest final concentration desired. The test was performed in 13×100 mm test tubes. Two mL of the working solution of test compound were added to test tube 1 of the dilution series. To each remaining tube, 1.0 mL of MHB was added. A sterile pipette was used to transfer 1.0 mL from tube 1 to tube 2. After thorough mixing 1.0 mL was transferred (with a separate pipette for this and each succeeding transfer) to tube 3. This process was continued to the next to last tube from which 1.0 mL was removed and discarded. The last tube received no antimicrobial agent and served as a growth control. The inoculum was prepared and adjusted to contain […] by adjusting the turbidity of a broth culture to match to 0.5 McFarland standard. It was then further diluted 1:200 in broth. One mL of the adjusted inoculum was added to each test tube. The final concentrations of antimicrobial agents in this test were half those of the initial dilution series because of the addition of an equal volume of inoculum in broth. Tubes were incubated at 35° C. for 18 hours. […] A very faint haziness or a small button is usually disregarded.
# [4] = tested on: Escherichia coli ATCC 25922; assay: as above; assay type: cell-based; conditions: ATCC25922, 18 h, macrodilution, read-out: Minimum Inhibitory Concentration
# Method: as §1
# [5] = tested on: Staphlococcus aureus ATCC 25923; assay: as above; assay type: cell-based; conditions: Staphylococcus aureus, ATCC25923, 18 h, macrodilution, read-out: Minimum Inhibitory Concentration
# Method: as §1
# [6] = tested on: 41-SK; assay: Antineoplastic activity, fluorescence based live-cell/dead cell ratio; design: species or system human
# Method: (§2) Values of IC50 (inhibitory concentration 50%) were calculated from the relative percent transmitted light as detected on a fluorescence 96 well plate reader.
# [7] = tested on: ZR-75-1; assay: as above; conditions: Homo sapiens, ZR-75-1, ZR-75-1
# Method: as §2
# [8] = tested on: ASPC-1; assay: as above; conditions: Homo sapiens, ASPC1, ASPC-1
# Method: as §2
# [9] = tested on: C. albicans ATCC 90028; assay: In vitro antifungal susceptibility assay adapted from NCCLS (MIC); assay type: cell-based, Candida albicans
# Method: (§3) Compounds of the invention also display antifungal activities. […] Using C. albicans ATCC® 90028, C. neoformans ATCC® 90112 and T. glabrata ATCC® 90030, the protocol is performed as follows:
# (§4) Prepare 0.0128 g DAA in 10 mL dH2 O (or other if H2 O insoluble)=1280 μg/mL (stock solution). Dilute DAA stock solution 1:10 with RPMI-1640: 0.5 mL DAA stock solution+4.5 mL RPMI-1640=128 μg/mL (DAA working solution).
# (§5) Inoculate rows A-H, columns 2-12 with 100 μl of RPMI-1640 using Eppendorf repeater pipette. Inoculate rows A-C columns 1 and 2 with 100 μl of 1st antibiotic (i.e. DAA-1) using electronic pipette. Inoculate rows E-G columns 1 and 2 with 100 μl of 2nd antibiotic (i.e. DAA-2) using electronic pipette. […] Plate is now ready for fungal inocula, which involves pipetting 100 μl of the inocula into all wells in rows A-C columns 1-12 and rows E-G columns 1-12. […]
# (§6) Five colonies greater than 1 mm in diameter are suspended in a spectrophotometer cuvette containing 5 mL of sterile, 0.85% saline (colonies are obtained from 24 hrs. old Candida and Torulopsis cultures, while Cryptococcus colonies are chosen from 48 hrs. old cultures). Spectrophotometer is set to read % transmission at a wavelength of 530 nm, and is standardized using two cuvettes. […] Fungal inoculum is now prepared and ready to be introduced to microplates. […]
# [10] = tested on: S. aureus ATCC 25923; assay: Microbroth dilution assay of antimicrobial susceptibility (MIC); assay type: cell-based, Staphylococcus aureus; conditions: microdilution, CAMHB, 37° C.
# Method: It is described below, using E. coli ATCC® 25922, S. aureus ATCC® 25923, and P. aeruginosa ATCC® 27853. Prepare 0.0128 g DAA in 10 mL dH2 O (or 95% EtOH, methanol or DMSO if H2 O insoluble)=1280 μg/mL (stock solution). Dilute DAA stock solution 1:10 with CAMHB (Cation-Adjusted Mueller Hinton Broth): 0.5 mL DAA stock solution+4.5 mL CAMHB=128 μg/mL (DAA working solution). Pipette 100 μl of sterile CAMHB per well into columns 2-12 of rows A-G using Eppendorf repeater pipette. Pipette 100 μl per well of sterile-filtered DAA working solution into columns 1 and 2 of rows A, C, E, G using Jensen electric pipette. Mix and transfer 100 μl from column 2 to 3 of rows A, C, E, G using Jensen pipette. Repeat to column 12 then discard 100 μl from column 12. Rows B, D and F are positive growth control lanes for each organism and contain only CAMHB and the organism--no DAA. Row H is the media additive control lane, if necessary (e.g. MeOH, EtOH, DMSO etc.). The concentration of the media additive is obtained by doing a 1:10 dilution of the additive with CAMHB (0.5 mL additive+4.5 mL CAMHB). Row G is considered to be "negative growth control" and is loaded with only CAMHB and the DAA. Inoculate 0.5 mL TSB (Trypticase Soy Broth) tubes with 3 single colonies each of E. coli, S. aureus, and P. Aeruginosa from TSA plates using sterile needle. Incubate @ 37° C. for 4-6 hr. Measure out 100 mL CAMHB using the sterile 100 mL volumetric flask. Pour the excess into a sterile reagent reservoir. Pipette 0.5 mL and discard, leaving 99.5 mL in each of the 3-Erlenmeyer flasks. Set aside. Use the excess CAMHB for the 1:10 dilution of inoculum: 0.5 mL inoculum+4.5 mL CAMHB. Perform a 1:200 dilution of inoculum: 0.5 mL of 1:10 diluted inoculum+99.5 mL CAMHB from previous step. Pipette 100 μl (using Eppendorf repeater pipette) E. coli into each well in columns 1-12 of rows A and B and columns 1-4 of row H (if media additive control lane necessary). Pipette 100 μl P. aeruginosa into each well in columns 1-12 of rows C and D and columns 5-8 of row H (if media additive control lane is necessary). Pipette 100 μl S. aureus into each well in columns 1-12 of rows E and F and columns 9-12 of row H (if media additive control lane is necessary). Incubate microtiter plates @ 37° C. for 18 hrs. The lowest concentration of antimicrobial agent that results in significant inhibition of visible growth represents the MIC (Minimal Inhibitory Concentration).
# [11] = tested on: E. coli ATCC 25922; assay: as above; assay type: cell-based; conditions: Escherichia coli, ATCC25922; microdilution, CAMHB, 37° C., 18 hrs
# Method: It is described below, using E. coli ATCC® 25922, S. aureus ATCC® 25923, and P. aeruginosa ATCC® 27853. Prepare 0.0128 g DAA in 10 mL dH2 O (or 95% EtOH, methanol or DMSO if H2 O insoluble)=1280 μg/mL (stock solution). Dilute DAA stock solution 1:10 with CAMHB (Cation-Adjusted Mueller Hinton Broth): 0.5 mL DAA stock solution+4.5 mL CAMHB=128 μg/mL (DAA working solution). Pipette 100 μl of sterile CAMHB per well into columns 2-12 of rows A-G using Eppendorf repeater pipette. Pipette 100 μl per well of sterile-filtered DAA working solution into columns 1 and 2 of rows A, C, E, G using Jensen electric pipette. Mix and transfer 100 μl from column 2 to 3 of rows A, C, E, G using Jensen pipette. Repeat to column 12 then discard 100 μl from column 12. Rows B, D and F are positive growth control lanes for each organism and contain only CAMHB and the organism--no DAA. Row H is the media additive control lane, if necessary (e.g. MeOH, EtOH, DMSO etc.). The concentration of the media additive is obtained by doing a 1:10 dilution of the additive with CAMHB (0.5 mL additive+4.5 mL CAMHB). Row G is considered to be "negative growth control" and is loaded with only CAMHB and the DAA. Inoculate 0.5 mL TSB (Trypticase Soy Broth) tubes with 3 single colonies each of E. coli, S. aureus, and P. Aeruginosa from TSA plates using sterile needle. Incubate @ 37° C. for 4-6 hr. […]
# [12] = tested on: T. glabrata ATCC 90030; assay: In vitro antifungal susceptibility assay adapted from NCCLS (MIC); assay type: cell-based, Torulopsis glabrata; conditions: Nakaseomyces glabratus, ATCC90030; RPMI-1640; read-out: MIC
# Method: as §3, §4, §5, §6
# [13] = tested on: C. neoformans ATCC 90112; assay: as above; assay type: cell-based, Cryptococcus neoformans; conditions: Cryptococcus neoformans, ATCC90112; RPMI-1640; read-out: MIC
# Method: as §3, §4, §5, §6
# [14] = tested on: P. aeruginosa ATCC 27853; conditions: control limits, Gentamicin 10 mcg disk; cited from earlier work
# [15] = tested on: S. aureus ATCC 25923; conditions: control limits, Gentamicin 10 mcg disk; cited from earlier work
# [16] = tested on: E. coli ATCC 25922; conditions: control limits, Gentamicin 10 mcg disk; cited from earlier work
# [17] = Staphylococcus aureus, ATCC25923, 18 h, read-out: MIC
molecule,measurement,setting,value
"CC1NCc2cc3c(cc2C1c1ccccc1)CNC(C)C3c1ccccc1.Cl.Cl (centres unmarked) [1,2,3,4,6,7,8,9-octahydro-3,8-dimethyl-4,9-diphenyl-pyrido[3,4-g]isoquinoline dihydrochloride]",anti-parasitic activity,[1],has an anti-parasitic activity
O=C(O)c1cn(C2CC2)c2cc(N3CCNCC3)c(F)cc2c1=O [Ciprofloxacin],MIC,[2],0.25 to 1 µg/mL
Cc1cnc2cc3cncc(C)c3cc2c1 [Derivative No. 1],MIC,[3],> 64 µg/mL
same,MIC,[4],64 µg/mL
same,MIC,[5],4 µg/mL
same,IC50,"[6]; listed as 1,8-DAA(Me)2 · HCl",139.2 µg/mL
same,IC50,[7],47.3 µg/mL
same,IC50,[8],58 µg/mL
same,MIC,"[9]; RPMI-1640, listed as 1,8-DAA-3,6-(Me)2.HCl",64 µg/mL
same,MIC,"[10]; 18 hrs, listed as 1,8-DAA-3,6-(Me)2.HCl",32 µg/mL
Cc1cc2cc3c(C)c[n+]([O-])cc3cc2[n+]([O-])c1 [Derivative No. 7],IC50,"[6]; Homo sapiens, read-out: IC50",11.3 µg/mL
same,IC50,[7],1.9 µg/mL
same,IC50,[8],9.3 µg/mL
same,MIC,[11],4 µg/mL
same,MIC,[10]; [17],0.125 µg/mL
"Cc1cc2cc3c(C)c[n+](C)cc3cc2[n+](C)c1 [Example 8.4, N,N'-dimethyl-1,8-DAA-3,6-(Me)2 tetrafluoroborate hemihydrate]",IC50,"[6]; Homo sapiens, read-out: IC50",35.9 µg/mL
same,IC50,[7],38.3 µg/mL
same,IC50,[8],62.5 µg/mL
Cc1cnc2c(c1)C(=O)c1c(C)cncc1C2=O [Example 14],MIC,[12],4 µg/mL
same,MIC,[13],4 µg/mL
same,MIC,"[9]; Candida albicans, ATCC90028, RPMI-1640, read-out: MIC",8 µg/mL
same,MIC,[10]; [17],1 µg/mL
Cc1cncc2cc3c(C)cncc3cc12 [Example 17],MIC,[10]; [17],64 µg/mL
CC1(C)S[C@@H]2[C@H](NC(=O)Cc3ccccc3)C(=O)N2[C@H]1C(=O)O [Penicillin],MIC,[2],8 to 16 µg/mL
CN(C)C1C(=O)C(C(N)=O)=C(O)C2(O)C(=O)C3=C(O)c4c(O)cccc4C(C)(O)C3CC12 (centres unmarked) [Tetracycline],MIC,[2],0.5 to 32 µg/mL
Gentamicin,control zone diameter,[14],16-21 mm
same,control zone diameter,[15],19-27 mm
same,control zone diameter,[16],19-26 mm
same,MIC,[2],0.25 to 16 µg/mL
